From patent publication US10561642B2, “Treatment of Zika virus infections using alpha-glucosidase inhibitors” (FLORIDA STATE UNIVERSITY RESEARCH FOUNDATION, INC., priority 2016, dated 2020)

Assays:
FSS-13025 strain of ZIKV = assay: Anti-ZIKV activity in SNB-19 cells, ZIKV NS1 expression by Western blot; type: cell-based, Zika virus; settings: 100 μm, 500 μm and 1 mM, treated one hour prior to inoculation (MOI=1), harvested 24 hours post-infection
Method: FIG. 1. Castanospermine as anti-ZIKV compound. Castanospermine was screened for antiviral activity against ZIKV infection. Glioblastoma SNB-19 cells were treated with castanospermine at the indicated concentrations one hour prior to inoculation with the FSS-13025 strain of ZIKV (at MOI=1). Cells were harvested 24 hours post-infection and analyzed by Western blot for ZIKV-NS1 or GAPDH.
Cells of the glioblastoma SNB-19 cell line were maintained at 37° C. in 5% CO2 in […], 1× penicillin/streptomycin, and 10% fetal bovine serum (Invitrogen). SNB-19 cells were treated with castanospermine at increasing concentrations (100 μm, 500 μm, and 1 mM) one hour prior to inoculation with the FSS-13025 strain of ZIKV. Cells were harvested 24 hours post-infection and analyzed by Western blot for ZIKV-NS1 or GAPDH.

[1] = test system: Japanese encephalitis virus; settings: compared with Dengue virus; cited from earlier work
[2] = test system: Japanese encephalitis virus; settings: upon treatment; cited from earlier work

| SMILES | Inhibition of ZIKV infection (ZIKV protein NS1 expression) (FSS-13025 strain of ZIKV) | Effect on cell infection by Japanese encephalitis virus [1] | Mortality rate among mice given a lethal dose of Japanese encephalitis virus [2] |
| --- | --- | --- | --- |
| O[C@H]1[C@H](O)[C@@H](O)CN2CC[C@H](O)[C@H]12 [castanospermine, (1S,6S,7R,8aR)-Tetrahydroxyoctahydroindolizine] | significantly inhibit ZIKV infection |  |  |
| CCCCCCCCCN1C[C@H](O)[C@@H](O)[C@H](O)[C@H]1CO [NN-DNJ, N-nonyl-deoxynojirimycin] |  | suppressed cell infection but to a lesser extent than with Dengue virus | decreased mortality rate |
